# What was measured:
# Assay type in all cases: in vivo
# Set-up in all cases: key: 0 is no effect; 10 is complete control
# [1] = system: bedstraw (Galium aparine); test: Test B pre-/postemergence
# Method in brief: (§1)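 Compounds in a surfactant-containing, non-phytotoxic solvent blend are applied to freshly planted seed (preemergence) and, concurrently, to seedlings of 2 to 18 cm at 1–4 leaves (postemergence). Plants stay in the greenhouse twelve to sixteen days and are then scored visually from 0 (no effect) to 10 (complete control).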
# [2] = system: blackgrass (Alopecurus myosuroides); test: Test B pre-/postemergence
# Method in brief: as §1
# [3] = system: broadleaf signalgrass (Brachiaria decumbens); test: Test B pre-/postemergence
# Method in brief: as §1
# [4] = system: cocklebur (Xanthium strumarium); test: Test B pre-/postemergence
# Method in brief: as §1
# corn (Zea mays) = test: Test B pre-/postemergence
# Method in brief: as §1
# [5] = system: crabgrass (Digitaria sanguinalis); test: Test B pre-/postemergence
# Method in brief: as §1
# [6] = system: giant foxtail (Setaria faberii); test: Test B pre-/postemergence
# Method in brief: as §1
# [7] = system: momingglory (Ipomoea hederacea); test: Test B pre-/postemergence
# Method in brief: as §1
# [8] = system: pigweed (Amaranthus retroflexus); test: Test B pre-/postemergence
# Method in brief: as §1
# [9] = system: purple nutsedge (Cyperus rotundus); test: Test B pre-/postemergence
# Method in brief: as §1
# rape (Brassica napus) = test: Test B pre-/postemergence
# Method in brief: as §1
# soybean (Glycine max) = test: Test B pre-/postemergence
# Method in brief: as §1
# [10] = system: sugar beet (Beta vulgaris); test: Test B pre-/postemergence
# Method in brief: as §1
# [11] = system: velvetleaf (Abutilon theophrasti); test: Test B pre-/postemergence
# Method in brief: as §1
# [12] = system: wheat (Triticum aestivum); test: Test B pre-/postemergence
# Method in brief: as §1
# wild oat (Avena fatua) = test: Test B pre-/postemergence
# Method in brief: as §1
# [13] = system: bamyardgrass (Echinochloa crus-galli); test: Test B flood test
# Method in brief: (§2)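 Read-out is a visual response score from 0 (no effect) to 10 (complete control), assigned by comparison with untreated controls. Treatment was applied at the 2-leaf stage, and plants stayed in the greenhouse for twelve to sixteen days before scoring.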
# [14] = system: duck salad (Heteranthera limosa); test: Test B flood test
# Method in brief: as §2
# rice (Oryza sativa) = test: Test B flood test
# Method in brief: as §2
# [15] = system: smallflower flatsedge (Cyperus difformis); test: Test B flood test
# Method in brief: as §2
# [16] = Preemergence, Rate 62 g/ha, scale of 0 to 10
# [17] = Rate 62 g/ha, Postemergence (flood test)
# [18] = Rate 125 g/ha, Postemergence section (flood test species)
# [19] = Rate 250 g/ha, Postemergence (flood test species)
smiles,measurement,setting,value
N#Cc1ccc(-c2nccc(C(=O)c3cccc(C(F)(F)F)c3)n2)cc1 [Compound 78],"Plant response rating, Bedstraw",[1]; [16],0
same,Bedstraw plant response rating,"[1]; Rate 62 g/ha, Postemergence",0
same,Bedstraw plant response rating,"[1]; Rate 125 g/ha, Postemergence",0
same,"Plant response rating, Bedstraw","[1]; Rate 125 g/ha, Preemergence",0
same,"Plant response rating, Bedstraw","[1]; Rate 250 g/ha, Postemergence",0
same,"Plant response rating, Bedstraw","[1]; Rate 250 g/ha, Preemergence",0
same,"Plant response rating, Blackgrass",[2]; [16],0
same,Blackgrass plant response rating,"[2]; Rate 62 g/ha, Postemergence",0
same,Blackgrass plant response rating,"[2]; Rate 125 g/ha, Postemergence",0
same,"Plant response rating, Blackgrass","[2]; Rate 125 g/ha, Preemergence",0
same,"Plant response rating, Blackgrass","[2]; Rate 250 g/ha, Postemergence",1
same,"Plant response rating, Blackgrass","[2]; Rate 250 g/ha, Preemergence",0
same,B. signalgrass plant response rating,"[3]; Rate 62 g/ha, Postemergence",0
same,B. signalgrass plant response rating,"[3]; Rate 62 g/ha, Preemergence",0
same,B. signalgrass plant response rating,"[3]; Rate 125 g/ha, Postemergence",0
same,"Plant response rating, B. signalgrass","[3]; Rate 125 g/ha, Preemergence",0
same,"Plant response rating, B. signalgrass","[3]; Rate 250 g/ha, Postemergence",1
same,"Plant response rating, B. signalgrass","[3]; Rate 250 g/ha, Preemergence",0
same,"Plant response rating, Cocklebur",[4]; [16],0
same,Cocklebur plant response rating,"[4]; Rate 62 g/ha, Postemergence",0
same,Cocklebur plant response rating,"[4]; Rate 125 g/ha, Postemergence",0
same,"Plant response rating, Cocklebur","[4]; Rate 125 g/ha, Preemergence",0
same,"Plant response rating, Cocklebur","[4]; Rate 250 g/ha, Postemergence",0
same,"Plant response rating, Cocklebur","[4]; Rate 250 g/ha, Preemergence",0
same,"Plant response rating, Corn",corn (Zea mays); [16],0
same,Corn plant response rating,"corn (Zea mays); Rate 62 g/ha, Postemergence",0
same,Corn plant response rating,"corn (Zea mays); Rate 125 g/ha, Postemergence",0
same,"Plant response rating, Corn","corn (Zea mays); Rate 125 g/ha, Preemergence",0
same,"Plant response rating, Corn","corn (Zea mays); Rate 250 g/ha, Postemergence",2
same,"Plant response rating, Corn","corn (Zea mays); Rate 250 g/ha, Preemergence",0
same,"Plant response rating, Crabgrass",[5]; [16],0
same,Crabgrass plant response rating,"[5]; Rate 62 g/ha, Postemergence",0
same,Crabgrass plant response rating,"[5]; Rate 125 g/ha, Postemergence",0
same,"Plant response rating, Crabgrass","[5]; Rate 125 g/ha, Preemergence",0
same,"Plant response rating, Crabgrass","[5]; Rate 250 g/ha, Postemergence",0
same,"Plant response rating, Crabgrass","[5]; Rate 250 g/ha, Preemergence",0
same,"Plant response rating, Giant foxtail",[6]; [16],0
same,Giant foxtail plant response rating,"[6]; Rate 62 g/ha, Postemergence",0
same,Giant foxtail plant response rating,"[6]; Rate 125 g/ha, Postemergence",0
same,"Plant response rating, Giant foxtail","[6]; Rate 125 g/ha, Preemergence",0
same,"Plant response rating, Giant foxtail","[6]; Rate 250 g/ha, Postemergence",0
same,"Plant response rating, Giant foxtail","[6]; Rate 250 g/ha, Preemergence",0
same,"Plant response rating, Morningglory",[7]; [16],0
same,Morningglory plant response rating,"[7]; Rate 62 g/ha, Postemergence",0
same,Morningglory plant response rating,"[7]; Rate 125 g/ha, Postemergence",0
same,"Plant response rating, Morningglory","[7]; Rate 125 g/ha, Preemergence",0
same,"Plant response rating, Morningglory","[7]; Rate 250 g/ha, Postemergence",2
same,"Plant response rating, Morningglory","[7]; Rate 250 g/ha, Preemergence",0
same,"Plant response rating, Redroot pigweed",[8]; [16],0
same,Redroot pigweed plant response rating,"[8]; Rate 62 g/ha, Postemergence",0
same,Redroot pigweed plant response rating,"[8]; Rate 125 g/ha, Postemergence",0
same,"Plant response rating, Redroot pigweed","[8]; Rate 125 g/ha, Preemergence",0
same,"Plant response rating, Redroot pigweed","[8]; Rate 250 g/ha, Postemergence",4
same,"Plant response rating, Redroot pigweed","[8]; Rate 250 g/ha, Preemergence",0
same,"Plant response rating, Nutsedge",[9]; [16],0
same,Nutsedge plant response rating,"[9]; Rate 62 g/ha, Postemergence",0
same,Nutsedge plant response rating,"[9]; Rate 125 g/ha, Postemergence",0
same,"Plant response rating, Nutsedge","[9]; Rate 125 g/ha, Preemergence",0
same,"Plant response rating, Nutsedge","[9]; Rate 250 g/ha, Postemergence",0
same,"Plant response rating, Nutsedge","[9]; Rate 250 g/ha, Preemergence",0
same,"Plant response rating, Rape",rape (Brassica napus); [16],0
same,Rape plant response rating,"rape (Brassica napus); Rate 62 g/ha, Postemergence",0
same,Rape plant response rating,"rape (Brassica napus); Rate 125 g/ha, Postemergence",0
same,"Plant response rating, Rape","rape (Brassica napus); Rate 125 g/ha, Preemergence",0
same,"Plant response rating, Rape","rape (Brassica napus); Rate 250 g/ha, Postemergence",0
same,"Plant response rating, Rape","rape (Brassica napus); Rate 250 g/ha, Preemergence",0
same,"Plant response rating, Soybean",soybean (Glycine max); [16],0
same,Soybean plant response rating,"soybean (Glycine max); Rate 62 g/ha, Postemergence",0
same,Soybean plant response rating,"soybean (Glycine max); Rate 125 g/ha, Postemergence",0
same,"Plant response rating, Soybean","soybean (Glycine max); Rate 125 g/ha, Preemergence",0
same,"Plant response rating, Soybean","soybean (Glycine max); Rate 250 g/ha, Postemergence",0
same,"Plant response rating, Soybean","soybean (Glycine max); Rate 250 g/ha, Preemergence",0
same,"Plant response rating, Sugarbeets",[10]; [16],0
same,Sugarbeets plant response rating,"[10]; Rate 62 g/ha, Postemergence",0
same,Sugarbeets plant response rating,"[10]; Rate 125 g/ha, Postemergence",0
same,"Plant response rating, Sugarbeets","[10]; Rate 125 g/ha, Preemergence",0
same,"Plant response rating, Sugarbeets","[10]; Rate 250 g/ha, Postemergence",0
same,"Plant response rating, Sugarbeets","[10]; Rate 250 g/ha, Preemergence",0
same,"Plant response rating, Velvetleaf",[11]; [16],0
same,Velvetleaf plant response rating,"[11]; Rate 62 g/ha, Postemergence",0
same,Velvetleaf plant response rating,"[11]; Rate 125 g/ha, Postemergence",0
same,"Plant response rating, Velvetleaf","[11]; Rate 125 g/ha, Preemergence",0
same,"Plant response rating, Velvetleaf","[11]; Rate 250 g/ha, Postemergence",0
same,"Plant response rating, Velvetleaf","[11]; Rate 250 g/ha, Preemergence",0
same,"Plant response rating, Wheat",[12]; [16],0
same,Wheat plant response rating,"[12]; Rate 62 g/ha, Postemergence",0
same,Wheat plant response rating,"[12]; Rate 125 g/ha, Postemergence",0
same,"Plant response rating, Wheat","[12]; Rate 125 g/ha, Preemergence",0
same,"Plant response rating, Wheat","[12]; Rate 250 g/ha, Postemergence",0
same,"Plant response rating, Wheat","[12]; Rate 250 g/ha, Preemergence",0
same,"Plant response rating, Wild oats",wild oat (Avena fatua); [16],0
same,Wild oats plant response rating,"wild oat (Avena fatua); Rate 62 g/ha, Postemergence",0
same,Wild oats plant response rating,"wild oat (Avena fatua); Rate 125 g/ha, Postemergence",0
same,"Plant response rating, Wild oats","wild oat (Avena fatua); Rate 125 g/ha, Preemergence",0
same,"Plant response rating, Wild oats","wild oat (Avena fatua); Rate 250 g/ha, Postemergence",0
same,"Plant response rating, Wild oats","wild oat (Avena fatua); Rate 250 g/ha, Preemergence",0
same,Barnyardgrass plant response rating,[13]; [17],0
same,Barnyardgrass plant response rating,[13]; [18],0
same,"Plant response rating, Barnyardgrass",[13]; [19],0
same,Ducksalad plant response rating,[14]; [17],0
same,Ducksalad plant response rating,[14]; [18],0
same,"Plant response rating, Ducksalad",[14]; [19],0
same,Rice plant response rating,rice (Oryza sativa); [17],0
same,Rice plant response rating,rice (Oryza sativa); [18],0
same,"Plant response rating, Rice",rice (Oryza sativa); [19],0
same,S. Flatsedge plant response rating,[15]; [17],0
same,S. Flatsedge plant response rating,[15]; [18],0
same,"Plant response rating, S. Flatsedge",[15]; [19],0

# Reference: patent US6525001B1, “Substituted pyrimidine and pyridine herbicides” (Mid-American Commercialization Corporation, priority 1997, dated 2003)
